According to US20060166999A1, “Use of microsomal triglyceride transfer protein (MTP) inhibitors for reducing the number of postprandial triglyceride-rich lipoprotein particles (PPTRL)” (Bayer Aktiengesellschaft, priority 2000, published 2006):

Key:
ApoE-knockout mice = experiment: Long-term feeding experiment with ApoE-knockout mice; type: in vivo; conditions: ApoE-knockout mice on fat-containing Western diet; 5 ppm with the feed; after 13 months; over half of the untreated mice were dead
Description: Long-Term Feeding Experiment with ApoE-Knockout Mice
ApoE-knockout mice received a fat-containing diet (0.15% cholesterol, 21.4% crude fat, 19% casein; “Western diet”). The compound of Example 48 was administered in a proportion of 5 ppm with the feed to the treated group, while the control group received the food without active ingredient. After 13 months, over half of the untreated mice were dead, whereas 23 of 25 animals in the treated group were still alive.
It is known from the literature that the ApoE-knockout mice used die from myocardial infarctions and manifestations of neuronal degeneration [Caligiuri, G., et al., Proc. Natl. Acad. Sci. USA, 96, 6920-6924 (1999); Walker, L. C. Am. J. Pathol., 151, (5), 1371-1377 81997)].

atherosclerotic plaques = conditions: mouse test; Zaiss et al., Circulation 100 (18, Suppl. I):258 Abstr. 1343 (1999); cited from earlier work

| Molecule | animals in the treated group still alive (ApoE-knockout mice) | formation of atherosclerotic plaques (atherosclerotic plaques) |
| --- | --- | --- |
| Cc1cc(C)c2c3ccccc3n(Cc3ccc([C@@H](C(=O)N[C@@H](CO)c4ccccc4)C4CCCC4)cc3)c2n1 [Example 48, (2S)-2-Cyclopentyl-2-[4-(2,4-dimethyl-pyrido[2,3-b]indol-9-ylmethyl)-phenyl]-N-(2-(1R)-hydroxy-1-phenyl-ethyl)-acetamide] | 23 of 25 | – |
| implitapide | – | prevents the formation of atherosclerotic plaques |
